Laboratory results from patent US20140094424A1, “MICROBICIDAL COMPOSITIONS AND METHODS OF PRODUCTION USE THEREOF” (priority 2011, published 2014).

Experiments:
Gram positive rods (S) = test: MBC (minimum bactericidal concentration) test in Wash NEXT reagent; type: cell-based
[1] = test system: Pseudomonas aeruginosa (AY); test: as above; type: cell-based

## [N-]=[N+]=[N-] [Sodium Azide, sodium azide]
Gram positive rods (S); 10% preservative, 8 hour
  MBC test growth score: +
Gram positive rods (S); 10% preservative, 24 hour
  MBC test growth score: +
Gram positive rods (S); 10% preservative, 48 hour
  MBC test growth score: +
Gram positive rods (S); 10% preservative, 72 hour
  MBC test growth score: +
Gram positive rods (S); 10% preservative, 7 day
  MBC test growth score: +
Gram positive rods (S); 10% preservative, 14 day
  MBC test growth score: +
Gram positive rods (S); 20% preservative, 8 hour
  MBC test growth score: +
Gram positive rods (S); 20% preservative, 24 hour
  MBC test growth score: +
Gram positive rods (S); 20% preservative, 48 hour
  MBC test growth score: +
Gram positive rods (S); 20% preservative, 72 hour
  MBC test growth score: +
Gram positive rods (S); 20% preservative, 7 day
  MBC test growth score: +
Gram positive rods (S); 20% preservative, 14 day
  MBC test growth score: +
Gram positive rods (S); 30% preservative, 8 hour
  MBC test growth score: +
Gram positive rods (S); 30% preservative, 24 hour
  MBC test growth score: +
Gram positive rods (S); 30% preservative, 48 hour
  MBC test growth score: +
Gram positive rods (S); 30% preservative, 72 hour
  MBC test growth score: +
Gram positive rods (S); 30% preservative, 7 day
  MBC test growth score: +
Gram positive rods (S); 30% preservative, 14 day
  MBC test growth score: +
Gram positive rods (S); 40% preservative, 8 hour
  MBC test growth score: +
Gram positive rods (S); 40% preservative, 24 hour
  MBC test growth score: +
Gram positive rods (S); 40% preservative, 48 hour
  MBC test growth score: +
Gram positive rods (S); 40% preservative, 72 hour
  MBC test growth score: +
Gram positive rods (S); 40% preservative, 7 day
  MBC test growth score: +
Gram positive rods (S); 40% preservative, 14 day
  MBC test growth score: +
Gram positive rods (S); 50% preservative, 8 hour
  MBC test growth score: +
Gram positive rods (S); 50% preservative, 24 hour
  MBC test growth score: +
Gram positive rods (S); 50% preservative, 48 hour
  MBC test growth score: +
Gram positive rods (S); 50% preservative, 72 hour
  MBC test growth score: +
Gram positive rods (S); 50% preservative, 7 day
  MBC test growth score: +
Gram positive rods (S); 50% preservative, 14 day
  MBC test growth score: +
Gram positive rods (S); 60% preservative, 8 hour
  MBC test growth score: +
Gram positive rods (S); 60% preservative, 24 hour
  MBC test growth score: +
Gram positive rods (S); 60% preservative, 48 hour
  MBC test growth score: +
Gram positive rods (S); 60% preservative, 72 hour
  MBC test growth score: +
Gram positive rods (S); 60% preservative, 7 day
  MBC test growth score: +
Gram positive rods (S); 60% preservative, 14 day
  MBC test growth score: +
Gram positive rods (S); 70% preservative, 8 hour
  MBC test growth score: +
Gram positive rods (S); 70% preservative, 24 hour
  MBC test growth score: +
Gram positive rods (S); 70% preservative, 48 hour
  MBC test growth score: +
Gram positive rods (S); 70% preservative, 72 hour
  MBC test growth score: +
Gram positive rods (S); 70% preservative, 7 day
  MBC test growth score: +
Gram positive rods (S); 70% preservative, 14 day
  MBC test growth score: +
Gram positive rods (S); 80% preservative, 8 hour
  MBC test growth score: +
Gram positive rods (S); 80% preservative, 24 hour
  MBC test growth score: +
Gram positive rods (S); 80% preservative, 48 hour
  MBC test growth score: +
Gram positive rods (S); 80% preservative, 72 hour
  MBC test growth score: +
Gram positive rods (S); 80% preservative, 7 day
  MBC test growth score: +
Gram positive rods (S); 80% preservative, 14 day
  MBC test growth score: +
Gram positive rods (S); 90% preservative, 8 hour
  MBC test growth score: +
Gram positive rods (S); 90% preservative, 24 hour
  MBC test growth score: +
Gram positive rods (S); 90% preservative, 48 hour
  MBC test growth score: +
Gram positive rods (S); 90% preservative, 72 hour
  MBC test growth score: +
Gram positive rods (S); 90% preservative, 7 day
  MBC test growth score: +
Gram positive rods (S); 90% preservative, 14 day
  MBC test growth score: +
Gram positive rods (S); 100% preservative, 8 hour
  MBC test growth score: +
Gram positive rods (S); 100% preservative, 24 hour
  MBC test growth score: +
Gram positive rods (S); 100% preservative, 48 hour
  MBC test growth score: +
Gram positive rods (S); 100% preservative, 72 hour
  MBC test growth score: +
Gram positive rods (S); 100% preservative, 7 day
  MBC test growth score: +
Gram positive rods (S); 100% preservative, 14 day
  MBC test growth score: +
Gram positive rods (S); at 14 days, listed as Na Azide
  total kill at % preservative (MBC): No kill @ 100%
[1]; 10% preservative, 8 hour
  MBC test growth score: +
[1]; 10% preservative, 24 hour
  MBC test growth score: +
[1]; 10% preservative, 48 hour
  MBC test growth score: +
[1]; 10% preservative, 72 hour
  MBC test growth score: +
[1]; 20% preservative, 8 hour
  MBC test growth score: +
[1]; 20% preservative, 24 hour
  MBC test growth score: +
[1]; 20% preservative, 48 hour
  MBC test growth score: +
[1]; 20% preservative, 72 hour
  MBC test growth score: +
[1]; 30% preservative, 8 hour
  MBC test growth score: +
[1]; 30% preservative, 24 hour
  MBC test growth score: +
[1]; 30% preservative, 48 hour
  MBC test growth score: +
[1]; 30% preservative, 72 hour
  MBC test growth score: +
[1]; 40% preservative, 8 hour
  MBC test growth score: +
[1]; 40% preservative, 24 hour
  MBC test growth score: +
[1]; 40% preservative, 48 hour
  MBC test growth score: +
[1]; 40% preservative, 72 hour
  MBC test growth score: +
[1]; 50% preservative, 8 hour
  MBC test growth score: +
[1]; 50% preservative, 24 hour
  MBC test growth score: +
[1]; 50% preservative, 48 hour
  MBC test growth score: +
[1]; 50% preservative, 72 hour
  MBC test growth score: +
[1]; 60% preservative, 8 hour
  MBC test growth score: +
[1]; 60% preservative, 24 hour
  MBC test growth score: +
[1]; 60% preservative, 48 hour
  MBC test growth score: +
[1]; 60% preservative, 72 hour
  MBC test growth score: +
[1]; 70% preservative, 8 hour
  MBC test growth score: +
[1]; 70% preservative, 24 hour
  MBC test growth score: +
[1]; 70% preservative, 48 hour
  MBC test growth score: +
[1]; 70% preservative, 72 hour
  MBC test growth score: +
[1]; 80% preservative, 8 hour
  MBC test growth score: +
[1]; 80% preservative, 24 hour
  MBC test growth score: +
[1]; 80% preservative, 48 hour
  MBC test growth score: +
[1]; 80% preservative, 72 hour
  MBC test growth score: +
[1]; 90% preservative, 8 hour
  MBC test growth score: +
[1]; 90% preservative, 24 hour
  MBC test growth score: +
[1]; 90% preservative, 48 hour
  MBC test growth score: +
[1]; 90% preservative, 72 hour
  MBC test growth score: +
[1]; 100% preservative, 8 hour
  MBC test growth score: +
[1]; 100% preservative, 24 hour
  MBC test growth score: +
[1]; 100% preservative, 48 hour
  MBC test growth score: +
[1]; 100% preservative, 72 hour
  MBC test growth score: +
[1]; at 72 hours, listed as Na Azide
  total kill at % preservative (MBC): No kill @ 100%
